Earlier results on 1 molecule are cited in patent US8679304B2, “Apparatus for creating bioactive solution” (priority 2008, dated 2014).

The subject of this series is Cryptosporidium oocysts. The settings on record: pH 7.

As to `[O][Cl+][O-]` [chlorine dioxide], the “approximate CT values for 99% inactivation” value is approximately 78.
